Measurements reported in patent US12691124B2, “Methods of controlling and improving brain health” (ICAHN SCHOOL OF MEDICINE AT MOUNT SINAI, priority 2019, dated 2026).
Entries after “also recorded” stand apart in the source; their conditions may differ.

Tested on: CK-p25 mice
Test: p25 (CK-p25) mouse model of Alzheimer's disease
Format: in vivo
Conditions: 30 mg/kg i.p. daily
Description: Cdk^5tetO/+; Camk^2atTa/+ model of Alzheimer's disease uses the Camk2a promoter-driven tetracycline-controlled transactivator system (tTA) to overexpress human p25 fused to GFP in forebrain projection neurons after the removal of doxycycline from the diet. To avoid potential developmental effects of p25 expression, all mice were conceived and raised in the presence of doxycycline until 6-8 weeks of age.
Immunostaining. Mice were anesthetized with ketamine (120 mg/kg) and xylazine (24 mg/kg) and perfused transcardially with 10 ml PBS and 40 ml 4% paraformaldehyde (Electron Microscopy Sciences). Fixed brains were removed and dehydrated in 5%, 15% and 30% sucrose in PBS. Following dehydration, brains were frozen in Neg-50 (Thermo Scientific) on dry ice and stored at −80° C. until further processing. Brains were cut using a cryostat and 25-μm sections were mounted on Superfrost Plus microscope slides (Fisher Scientific). Slides were stored at −80° C. until staining. Slides were washed with PBS, permeabilized with PBS+0.2% Triton X-100 (PBST) and blocked with 2% normal goat serum in PBST for one hour at room temperature. Slides were incubated with primary antibodies (IBA1, 1:500, 019-19741, Waco; NeuN) in 2% normal goat serum in PBST overnight at 4° C. Slides were washed in PBST and incubated in Alexa Fluor-conjugated secondary antibodies (Alexa Fluor 488-, 546-, and 568- and 647-labeled goat anti-mouse, goat anti-rat, goat anti-chicken, goat anti-rabbit or donkey anti-goat IgGs (H+L); 1:500, Thermo Scientific) in 2% normal goat serum in PBST for 1 h at RT. Slides were washed and cover-slipped using Prolong Gold anti-fade with DAPI (Invitrogen) and dried overnight. Imaging was performed using a Zeiss LSM 780 Confocal Microscope (Zeiss, Oberkochen, DE). For z-stack images, 20-μm z-stack confocal images were acquired at 2-μm intervals, with 40×/1.3 oil objective at 0.6 or 1× zoom. For single plane images, 4.6 μm images were acquired at 20×/0.8 or 40×/1.3 objectives 0.6 or 1× zoom. Image processing was performed using Zen 2011 software (Zeiss).
Immunoblotting. Mice were anesthetized with CO2 followed by decapitation, and the region of interest was rapidly dissected and frozen in liquid nitrogen and stored at −80° C. until further processing. Samples were sonicated at 4° C. in 1% SDS solution supplemented with protease, Trichostatin A (500 ng/ml) and PhosStop phosphatase inhibitor (Roche, Switzerland), and boiled for ten minutes. The protein concentration was determined using a BCA protein assay kit (ThermoFisherScientific, USA) according to the manufacturer's instructions. Protein samples were diluted in equal volume of 2×LDS sample buffer (Invitrogen) and supplemented with DTT to a final concentration of 200 mM (Sigma).
Therefore to test the therapeutic effect of IBET858, p25 was overexpressed for two weeks in adult mice to initiate microgliosis and gene expression deficits before administration of daily IBET858 (30 mg/kg, i.p.) treatment for five weeks (FIG. 6A).
Gene expression levels for Casp3 are unaffected by 5 week IBET858 treatment in vivo. n=3, unpaired two-tailed t-test. […] To generate the p25 neurodegenerative mouse model, tetOCDK5R1/GFP were bred to CamK2a-tTA mice (“CK-p25”). Transgene overexpression was induced at 6 weeks of age by removing doxycycline from the diet. After two weeks, mice were daily injected with IBET858 (30 mg/kg, i.p.) or vehicle (FIG. 24C). Gene expression and protein levels of GFP reflecting transgene expression are unchanged.

Compound: CC(=O)N1c2ccc(-c3ccc(CN4CCCCC4)cc3)cc2[C@H](Nc2ccccc2)CC1C (stereo in doubt) [IBET858]
- hippocampal inflammatory genes induced by P25 overexpression (five weeks): suppressed
- contextual and cued recall (freezing behavior) (five weeks, fear conditioning): indistinguishable from controls
- hippocampal Psd95 protein level compared to wild type controls (five weeks, untreated P25 42+/−10.7%): 106+/−11.9%
- hippocampal NeuN protein level compared to wild type controls (five weeks, untreated P25 49+/−9.3%): 105+/−9.8%
- brain atrophy (loss) (five weeks, untreated p25 27%): 17%
- number of microglia in the hippocampus (five weeks, untreated p25 713.9+/−106): 332.9+/−12.6 Iba1+ cells per mm^2
- neuronal density in the dentate gyrus (five weeks, untreated p25 2254+/−223.8): 7880+/−587 NeuN+ cells per mm2
- expression of the p25 transgene (western blot / GFP): does not affect; also recorded: unchanged
- genes induced by P25 overexpression that are significantly suppressed (hippocampus): 365 genes
- genes suppressed by P25 overexpression that are significantly induced (hippocampus): 373 genes
